According to patent US11612602B2, “Heterocyclic compounds and uses as anticancer agents” (ACEA Therapeutics, Inc., priority 2012, dated 2023):

Legend:
Type in all cases: cell-based
[1] = target: T1, EGFR (T790M/L858R), H1975 cell (Homo sapiens, UniProt P00533, L858R/T790M); assay: ELISA assay of EGFR phosphorylation in H1975 cells; details: for IC50: EGFR pY1068 sandwich ELISA, 2 hours compound in serum-free medium; for Selectivity (WT/T790M): ratio of IC50 A431 cell (WT) to IC50 H1975 cell (T790M/L858R)
T1 construct: endogenous in cells; host or cells: H1975
Procedure: (§1) H1975 and A431 cells were seeded onto each well of a 96-well plate at a density of 4×10^4 cells per well. After 24 hours of growth in serum-containing media, cells were treated with test compound in serum-free medium for 2 hours. A431 cells were stimulated with 30 ng/mL EGF during the last 15 minutes of compound treatment. Cells were washed with ice cold PBS before extraction with 100 μl per well cell lysis buffer. Phosphorylation of EGFR was measured using a sandwich ELISA assay with the pair of phospho-specific EGFR (pY1068) and total EGFR antibodies.

EGFR (WT), A431 cell = target: T2, EGFR (WT), A431 cell (Homo sapiens, UniProt P00533); assay: ELISA assay of EGFR phosphorylation in A431 cells; details: EGFR pY1068 sandwich ELISA, 2 hours compound, 30 ng/mL EGF last 15 minutes
T2 construct: endogenous in cells; host or cells: A431
Procedure: as §1

EGFR in A431 cells = assay: A431 EGF stimulation assay (impedance, xCelligence RTCA); details: Homo sapiens, A-431
Procedure: All cell lines were obtained from the American Type Culture Collection and were maintained at 37° C. with 5% CO2, in media supplemented with 10% fetal bovine serum and 1% L-glutamine-penicillin-streptomycin. […] A431 and Hela cells were maintained in Dulbecco's Modification of Eagle's Medium. EGF (R&D), EGF inhibitors were resuspended and stored according to the manufacturers' instructions.
Impedance measurements were taken using the xCelligence RTCA system (Roche Applied Science) instrument using the E-plates 96-well device from the same company. Cells were trypsinized and seeded on a 96-well E-plate at a density of 15000 cells per well in a volume of 0.1 ml. Cells were allowed to attach and proliferate overnight. […] Following serum starvation, the cells were pretreated with compounds or vehicle for 40 min and then stimulated with EGF at 30 ng/mL. Throughout the experimental process, the cells were continually monitored, and the changes in impedance were acquired with the xCelligence RTCA system. After EGF treatment, data acquisition was done every minute for up to 2 h. For each cell type the optimal cell concentration was chosen based on their respective proliferation pattern.

A549 cells = assay: A549 cell viability assay (cytotoxicity, xCelligence RTCA); details: Homo sapiens, 72 h, 3 days
Procedure: (§2) All cell lines were obtained from the American Type Culture Collection and were maintained at 37° C. with 5% CO2, in media supplemented with 10% fetal bovine serum and 1% L-glutamine-penicillin-streptomycin. H1975, HCC827 and A549 cells were cultured with RPMI 1640 media. A431 and Hela cells were maintained in Dulbecco's Modification of Eagle's Medium. EGF (R&D), EGF inhibitors were resuspended and stored according to the manufacturers' instructions.
(§3) Cells were seeded in 96-well E-Plate devices, and attachment, spreading, and proliferation were monitored using the xCelligence RTCA system. After 20 h of RTCA profiling, the cells were treated with the indicated compounds prediluted in growth media to a final maximal DMSO concentration of 0.1%, and the responses were measured at 30-min intervals for 3 days. For each cell type the optimal cell concentration was chosen based on their respective proliferation pattern.

HeLa cells = assay: HeLa cell viability assay (cytotoxicity, xCelligence RTCA); details: Homo sapiens, 72 h, 3 days
Procedure: as §2, §3

EGFR in H1975 cells = assay: H1975 EGF stimulation assay (impedance, xCelligence RTCA); details: Homo sapiens, NCI-H1975, 40 min pretreatment, EGF 30 ng/mL
Procedure: as §2
Impedance measurements were taken using the xCelligence RTCA system (Roche Applied Science) instrument using the E-plates 96-well device from the same company. Cells were trypsinized and seeded on a 96-well E-plate at a density of 15000 cells per well in a volume of 0.1 ml. Cells were allowed to attach and proliferate overnight. Prior to compound treatment, H1975 cells were serum starved in RPMI-1640 for a total of 4 h. Following serum starvation, the cells were pretreated with compounds or vehicle for 40 min and then stimulated with EGF at 30 ng/mL. Throughout the experimental process, the cells were continually monitored, and the changes in impedance were acquired with the xCelligence RTCA system. After EGF treatment, data acquisition was done every minute for up to 2 h. For each cell type the optimal cell concentration was chosen based on their respective proliferation pattern.

H1975 cells = assay: H1975 cell viability assay (cytotoxicity, xCelligence RTCA); details: 3 days
Procedure: as §2, §3

T1 sequence (P00533 25-1210 T790M/L858R): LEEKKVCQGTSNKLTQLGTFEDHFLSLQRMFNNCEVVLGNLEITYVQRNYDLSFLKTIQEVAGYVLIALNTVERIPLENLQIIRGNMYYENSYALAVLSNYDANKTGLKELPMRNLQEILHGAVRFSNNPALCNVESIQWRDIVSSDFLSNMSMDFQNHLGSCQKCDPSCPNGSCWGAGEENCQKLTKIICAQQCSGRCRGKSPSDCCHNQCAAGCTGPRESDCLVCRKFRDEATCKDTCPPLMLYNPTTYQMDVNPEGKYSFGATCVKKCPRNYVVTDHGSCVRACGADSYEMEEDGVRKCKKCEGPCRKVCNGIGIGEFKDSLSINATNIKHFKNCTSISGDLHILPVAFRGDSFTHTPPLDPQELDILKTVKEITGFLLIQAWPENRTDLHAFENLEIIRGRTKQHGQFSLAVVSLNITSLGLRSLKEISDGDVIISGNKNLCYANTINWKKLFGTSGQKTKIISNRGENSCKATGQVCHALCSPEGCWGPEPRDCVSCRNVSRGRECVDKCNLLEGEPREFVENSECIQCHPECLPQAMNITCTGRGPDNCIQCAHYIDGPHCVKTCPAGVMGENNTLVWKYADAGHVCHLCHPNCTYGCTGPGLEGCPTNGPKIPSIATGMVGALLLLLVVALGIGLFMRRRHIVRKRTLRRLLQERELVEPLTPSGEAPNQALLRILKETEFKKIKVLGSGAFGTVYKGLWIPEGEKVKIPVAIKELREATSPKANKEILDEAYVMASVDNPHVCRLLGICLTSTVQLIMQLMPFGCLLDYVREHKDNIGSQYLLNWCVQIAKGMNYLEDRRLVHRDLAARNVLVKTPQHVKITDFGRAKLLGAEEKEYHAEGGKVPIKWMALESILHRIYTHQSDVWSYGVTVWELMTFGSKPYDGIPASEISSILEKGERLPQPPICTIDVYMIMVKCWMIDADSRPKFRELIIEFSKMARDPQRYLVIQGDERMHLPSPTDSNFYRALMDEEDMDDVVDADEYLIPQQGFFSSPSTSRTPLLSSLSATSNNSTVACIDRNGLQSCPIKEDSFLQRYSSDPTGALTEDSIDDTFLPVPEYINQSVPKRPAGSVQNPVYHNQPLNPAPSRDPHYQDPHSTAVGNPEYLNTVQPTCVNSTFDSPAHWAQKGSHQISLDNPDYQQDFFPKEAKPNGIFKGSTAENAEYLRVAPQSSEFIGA
T2 sequence (P00533 25-1210): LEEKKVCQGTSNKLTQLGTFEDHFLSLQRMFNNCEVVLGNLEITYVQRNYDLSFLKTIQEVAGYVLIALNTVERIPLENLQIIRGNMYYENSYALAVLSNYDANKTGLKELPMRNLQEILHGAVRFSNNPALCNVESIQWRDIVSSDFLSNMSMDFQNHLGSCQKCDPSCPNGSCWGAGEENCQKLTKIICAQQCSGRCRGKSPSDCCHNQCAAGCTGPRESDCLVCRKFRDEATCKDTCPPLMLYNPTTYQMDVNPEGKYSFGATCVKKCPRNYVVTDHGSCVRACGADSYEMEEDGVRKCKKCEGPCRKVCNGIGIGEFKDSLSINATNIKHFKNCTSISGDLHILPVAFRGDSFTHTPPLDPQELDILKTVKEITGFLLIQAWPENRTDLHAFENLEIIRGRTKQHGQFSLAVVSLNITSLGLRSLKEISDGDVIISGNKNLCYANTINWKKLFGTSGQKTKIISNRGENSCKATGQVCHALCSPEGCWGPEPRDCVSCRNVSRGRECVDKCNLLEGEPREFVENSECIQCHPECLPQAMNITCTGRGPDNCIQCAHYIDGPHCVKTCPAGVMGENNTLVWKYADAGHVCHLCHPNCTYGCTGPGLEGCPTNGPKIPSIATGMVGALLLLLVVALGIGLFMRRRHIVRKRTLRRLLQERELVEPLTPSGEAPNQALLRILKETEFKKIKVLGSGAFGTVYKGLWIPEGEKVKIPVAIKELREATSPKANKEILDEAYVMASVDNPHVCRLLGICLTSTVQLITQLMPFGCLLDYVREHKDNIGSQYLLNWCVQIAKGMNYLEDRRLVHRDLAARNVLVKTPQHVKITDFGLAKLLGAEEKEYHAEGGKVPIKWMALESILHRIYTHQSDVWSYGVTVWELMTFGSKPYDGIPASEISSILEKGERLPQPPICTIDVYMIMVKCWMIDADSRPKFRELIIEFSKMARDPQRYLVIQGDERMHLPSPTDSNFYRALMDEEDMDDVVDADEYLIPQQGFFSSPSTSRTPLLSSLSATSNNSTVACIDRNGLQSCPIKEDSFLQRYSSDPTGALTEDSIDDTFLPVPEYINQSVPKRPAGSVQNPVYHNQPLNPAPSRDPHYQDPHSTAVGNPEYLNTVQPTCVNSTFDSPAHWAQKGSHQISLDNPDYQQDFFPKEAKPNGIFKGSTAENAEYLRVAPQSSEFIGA

IC50 [1] | Selectivity (WT/T790M) [1] | IC50 (EGFR (WT), A431 cell) | IC50 (EGFR in A431 cells) | IC50 (EGFR in H1975 cells) | Structure (SMILES) | IC50 (A549 cells) | IC50 (HeLa cells) | H1975 cell viability assay (under head IC50 (uM), results in words) (H1975 cells)
0.106 µM | 105 | 11.1 µM | – | – | C=CC(=O)Nc1cccc(C(F)(F)c2nc(Nc3ccc(N4CCN(C)CC4)cc3)ncc2C)c1 [Compound 37] | – | – | –
1.74 µM | 14.6 | 25.3 µM | – | – | C/C=C/C(=O)Nc1cccc(C(F)(F)c2nc(Nc3ccc(N4CCN(C)CC4)cc3)ncc2F)c1 [Compound 40] | – | – | –
1.63 µM | 7.2 | 11.8 µM | – | – | C/C=C/C(=O)Nc1cccc(C(F)(F)c2nc(Nc3ccc(N4CCN(CC)CC4)cc3)ncc2F)c1 [Compound 42] | – | – | –
0.029 µM | 85 | 2.46 µM | 0.97 µM | 1.1 µM | C=CC(=O)Nc1cccc(C(F)(F)c2nc(Nc3ccc(N4CCN(C)CC4)cc3)ncc2F)c1 [Compound 19, N-(3-(difluoro(5-fluoro-2-(4-(4-methylpiperazin-1-yl)phenylamino)pyrimidin-4-yl)methyl)phenyl)acrylamide] | > 6.7 µM | > 6.7 µM | Active
0.341 µM | 11.2 | 3.81 µM | – | – | C=CC(=O)Nc1cccc(C(F)(F)c2nc(Nc3ccc(N4CCN(C)CC4)cc3)ncc2Cl)c1 [Compound 38] | – | – | –
0.062 µM | 58.4 | 3.61 µM | – | – | C=CC(=O)Nc1cccc(C(F)(F)c2nc(Nc3ccc(N4CCN(C)CC4)cc3)ncc2OC)c1 [Compound 35] | – | – | –
0.041 µM | 17.3 | 0.71 µM | – | – | C=CC(=O)Nc1cccc(C(F)(F)c2nc(Nc3ccc(N4CCN(CC)CC4)cc3)ncc2F)c1 [Compound 39] | – | – | –

The remaining lines, values behind:

Structure (SMILES) | IC50 [1] | Selectivity (WT/T790M) [1] | IC50 (EGFR (WT), A431 cell) | IC50 (EGFR in A431 cells) | IC50 (EGFR in H1975 cells) | IC50 (A549 cells) | IC50 (HeLa cells) | H1975 cell viability assay (under head IC50 (uM), results in words) (H1975 cells)
C=CC(=O)Nc1cccc(C(F)(F)c2nc(Nc3ccc(N4CCN(C)CC4)nc3)nc3[nH]ccc23)c1 [Compound 28b, N-(3-(difluoro(2-(6-(4-methylpiperazin-1-yl)pyridin-3-ylamino)-7H-pyrrolo[2,3-d]pyrimidin-4-yl)methyl)phenyl)acrylamide] | 0.026 µM | 466 | 12 µM | – | – | – | – | –
C=CC(=O)Nc1cccc(C(F)(F)c2nc(Nc3ccc(N4CCN(C)CC4)cc3OC)nc3[nH]ccc23)c1 [Compound 28d, N-(3-(difluoro(2-(2-methoxy-4-(4-methylpiperazin-1-yl)phenylamino)-7H-pyrrolo[2,3-d]pyrimidin-4-yl)methyl)phenyl)acrylamide] | 0.158 µM | >127 | > 20 µM | – | – | – | – | –
C=CC(=O)Nc1cccc(C(F)(F)c2nc(Nc3ccc(N4CCN(C)CC4)cc3OC)ncc2F)c1 [Compound 32] | 1.3 µM | >15.4 | > 20 µM | – | – | – | – | –
C=CC(=O)Nc1cccc(C(F)(F)c2nc(Nc3ccc(N4CCN(C)CC4)cc3OC)ncc2OC)c1 [Compound 63] | 0.03 µM | 974 | 28.8 µM | – | – | – | – | –
C=CC(=O)Nc1cccc(C(F)(F)c2nc(Nc3ccc(N4CCN(C)CC4)cc3OC)nc3[nH]cnc23)c1 [Compound 13b, N-(3-(difluoro(2-(2-methoxy-4-(4-methylpiperazin-1-yl)phenylamino)-9H-purin-6-yl)methyl)phenyl)acrylamide] | 0.34 µM | 32 | 10.8 µM | 4.1 µM | 1.9 µM | > 20 µM | > 20 µM | –
C=CC(=O)Nc1cccc(C(F)(F)c2nc(Nc3ccc(N4CCN(C)CC4)cc3)nc3[nH]cnc23)c1 [Compound 13a, N-(3-(difluoro(2-(4-(4-methylpiperazin-1-yl)phenylamino)-9H-purin-6-yl)methyl)phenyl)acrylamide] | 0.17 µM | 82 | 13.7 µM | 2.4 µM | 1.7 µM | > 20 µM | > 2.2 µM | Active
C=CC(=O)Nc1cccc(C(F)(F)c2nc(Nc3ccc(N4CCN(C)CC4)c(F)c3)nc3[nH]ccc23)c1 [Compound 28c, N-(3-(difluoro(2-(3-fluoro-4-(4-methylpiperazin-1-yl)phenylamino)-7H-pyrrolo[2,3-d]pyrimidin-4-yl)methyl)phenyl)acrylamide] | 0.08 µM | 100 | 8.05 µM | – | – | – | – | –
C=CC(=O)Nc1cccc(C(F)(F)c2nc(Nc3ccc(N4CCN(C)CC4)c(F)c3)ncc2OC)c1 [Compound 34] | 0.038 µM | 113 | 4.37 µM | – | – | – | – | –
C=CC(=O)Nc1cccc(C(F)(F)c2nc(Nc3ccc(N4CCN(C)CC4)nc3)ncc2F)c1 [Compound 33] | 0.099 µM | 72.6 | 7.17 µM | – | – | – | – | –
C=CC(=O)Nc1cccc(Oc2nc(Nc3ccc(N4CCN(C)CC4)cc3OC)ncc2Cl)c1 [WZ4002, reference compound] | – | – | – | 0.817 µM | 1.1 µM | > 20 µM | > 6.7 µM | Active
C=CC(=O)Nc1cccc(C(F)(F)c2nc(Nc3ccc(N4CCN(C)CC4)cc3)nc3c2ccn3CO)c1 [Compound 27a, N-(3-(difluoro(7-(hydroxymethyl)-2-(4-(4-methylpiperazin-1-yl)phenylamino)-7H-pyrrolo[2,3-d]pyrimidin-4-yl)methyl)phenyl)acrylamide] | 0.058 µM | 403 | 23.4 µM | – | – | – | – | –
C=CC(=O)Nc1cccc(C(F)(F)c2nc(Nc3ccc(N4CCN(C)CC4)c(F)c3)ncc2F)c1 [Compound 36] | 0.093 µM | 23.3 | 2.17 µM | – | – | – | – | –
C=CC(=O)Nc1cccc(C(F)(F)c2nc(Nc3ccc(N4CCN(C)CC4)nc3)ncc2OC)c1 [Compound 31] | 0.03 µM | >657 | > 20 µM | – | – | – | – | –
C=CC(=O)Nc1cccc(C(F)(F)c2nc(Nc3ccc(N4CCN(C)CC4)cc3)nc3[nH]ccc23)c1 [Compound 28a, N-(3-(difluoro(2-(4-(4-methylpiperazin-1-yl)phenylamino)-7H-pyrrolo[2,3-d]pyrimidin-4-yl)methyl)phenyl)acrylamide] | 0.026 µM | 107 | 2.73 µM | – | – | – | – | –
